pKd: −log10 of the molar value.
Target: WDR5 (Homo sapiens (Human), UniProt P61964)
Assay: Surface Plasmon Resonance (SPR) assay, KD and residence time
Format: binding
Conditions: surface plasmon resonance (SPR); read-out: WDR5 binding affinity (KD)

Compound	pKd
COc1cnc(N2CC=C(c3cc(NC(=O)c4c[nH]c(=O)cc4C(F)(F)F)c(N4C[C@@H](C)N(C)[C@@H](C)C4)cc3F)C2)nc1 [Example 437, N-[4-fluoro-5-[1-(5-methoxypyrimidin-2-yl)-2,5-dihydropyrrol-3-yl]-2-[(3R,5S)-3,4,5-trimethylpiperazin-1-yl]phenyl]-6-oxo-4-(trifluoromethyl)-1H-pyridine-3-carboxamide]	9.14
COc1cc(N2CC=C(c3cc(NC(=O)c4c[nH]c(=O)cc4C(F)(F)F)c(N4C[C@@H](C)N(C)[C@@H](C)C4)cc3F)C2)ncn1 [Example 438, N-[4-fluoro-5-[1-(6-methoxypyrimidin-4-yl)-2,5-dihydropyrrol-3-yl]-2-[(3R,5S)-3,4,5-trimethylpiperazin-1-yl]phenyl]-6-oxo-4-(trifluoromethyl)-1H-pyridine-3-carboxamide]	8.70
Cc1cnc(N2CC=C(c3cc(NC(=O)c4c[nH]c(=O)cc4C(F)(F)F)c(N4C[C@@H](C)N(C)[C@@H](C)C4)cc3F)C2)nc1 [Example 439, N-[4-fluoro-5-[1-(5-methylpyrimidin-2-yl)-2,5-dihydropyrrol-3-yl]-2-[(3R,5S)-3,4,5-trimethylpiperazin-1-yl]phenyl]-6-oxo-4-(trifluoromethyl)-1H-pyridine-3-carboxamide]	8.61
C[C@@H]1CN(c2cc(F)c(C3=CCN(c4ncc(F)cn4)C3)cc2NC(=O)c2c[nH]c(=O)cc2C(F)(F)F)C[C@H](C)N1C [Example 440, N-[4-fluoro-5-[1-(5-fluoropyrimidin-2-yl)-2,5-dihydropyrrol-3-yl]-2-[(3R,5S)-3,4,5-trimethylpiperazin-1-yl]phenyl]-6-oxo-4-(trifluoromethyl)-1H-pyridine-3-carboxamide]	8.54
C[C@@H]1CN(c2cc(F)c(C3=CCN(C(=O)N4CCCC4)C3)cc2NC(=O)c2c[nH]c(=O)cc2C(F)(F)F)C[C@H](C)N1C [Example 441, N-[4-fluoro-5-[1-(pyrrolidine-1-carbonyl)-2,5-dihydropyrrol-3-yl]-2-[(3R,5S)-3,4,5-trimethylpiperazin-1-yl]phenyl]-6-oxo-4-(trifluoromethyl)-1H-pyridine-3-carboxamide]	8.72
C[C@@H]1CN(c2cc(F)c(C3=CCN(C(=O)c4cnccn4)C3)cc2NC(=O)c2c[nH]c(=O)cc2C(F)(F)F)C[C@H](C)N1C [Example 442, N-[4-fluoro-5-[1-(pyrazine-2-carbonyl)-2,5-dihydropyrrol-3-yl]-2-[(3R,5S)-3,4,5-trimethylpiperazin-1-yl]phenyl]-6-oxo-4-(trifluoromethyl)-1H-pyridine-3-carboxamide]	8.44
CC(C)COC(=O)N1CC=C(c2cc(NC(=O)c3c[nH]c(=O)cc3C(F)(F)F)c(N3C[C@@H](C)N(C)[C@@H](C)C3)cc2F)C1 [Example 443, 2-methylpropyl 3-[2-fluoro-5-[[6-oxo-4-(trifluoromethyl)-1H-pyridine-3-carbonyl]amino]-4-[(3R,5S)-3,4,5-trimethylpiperazin-1-yl]phenyl]-2,5-dihydropyrrole-1-carboxylate]	8.63
C[C@@H]1CN(c2cc(F)c(C3=CCN(c4ncc(C=O)cn4)C3)cc2NC(=O)c2c[nH]c(=O)cc2C(F)(F)F)C[C@H](C)N1C [Example 444, N-[4-fluoro-5-[1-(5-formylpyrimidin-2-yl)-2,5-dihydropyrrol-3-yl]-2-[(3R,5S)-3,4,5-trimethylpiperazin-1-yl]phenyl]-6-oxo-4-(trifluoromethyl)-1H-pyridine-3-carboxamide]	8.53
C[C@@H]1CN(c2cc(F)c(-c3cnn(C)c3)cc2NC(=O)c2c[nH]c(=O)cc2C(F)(F)F)C[C@H](C)N1C [Example 445, N-[4-fluoro-5-(1-methylpyrazol-4-yl)-2-[(3R,5S)-3,4,5-trimethylpiperazin-1-yl]phenyl]-6-oxo-4-(trifluoromethyl)-1H-pyridine-3-carboxamide]	8.71
C[C@@H]1CN(c2cc(F)c(-c3nc(C#N)cs3)cc2NC(=O)c2c[nH]c(=O)cc2C(F)(F)F)C[C@H](C)N1C [Example 446, N-[5-(4-cyano-1,3-thiazol-2-yl)-4-fluoro-2-[(3R,5S)-3,4,5-trimethylpiperazin-1-yl]phenyl]-6-oxo-4-(trifluoromethyl)-1H-pyridine-3-carboxamide]	8.53
C[C@@H]1CN(c2cc(F)c(-c3ncc(C#N)s3)cc2NC(=O)c2c[nH]c(=O)cc2C(F)(F)F)C[C@H](C)N1C [Example 447, N-[5-(5-cyano-1,3-thiazol-2-yl)-4-fluoro-2-[(3R,5S)-3,4,5-trimethylpiperazin-1-yl]phenyl]-6-oxo-4-(trifluoromethyl)-1H-pyridine-3-carboxamide]	8.54
C[C@@H]1CN(c2cc(F)c(-c3ccc(N4CCOCC4)c(F)c3)cc2NC(=O)c2cn(C)c(=O)cc2C(F)F)C[C@H](C)N1C [Example 449, 4-(difluoromethyl)-N-[4-fluoro-5-(3-fluoro-4-morpholin-4-ylphenyl)-2-[(3R,5S)-3,4,5-trimethylpiperazin-1-yl]phenyl]-1-methyl-6-oxopyridine-3-carboxamide]	8.04
C[C@@H]1CN(c2cc(F)c(-c3cnc(N4CCN(C5CC5)CC4)nc3)cc2NC(=O)c2ccc(F)cc2C(F)(F)F)C[C@H](C)N1C [Example 454, N-[5-[2-(4-cyclopropylpiperazin-1-yl)pyrimidin-5-yl]-4-fluoro-2-[(3R,5S)-3,4,5-trimethylpiperazin-1-yl]phenyl]-4-fluoro-2-(trifluoromethyl)benzamide]	8.39
C[C@@H]1CN(c2cc(F)c(C3=CCN(c4ncc(CN(C)C)cn4)C3)cc2NC(=O)c2c[nH]c(=O)cc2C(F)(F)F)C[C@H](C)N1C [Example 457, N-[5-[1-[5-[(dimethylamino)methyl]pyrimidin-2-yl]-2,5-dihydropyrrol-3-yl]-4-fluoro-2-[(3R,5S)-3,4,5-trimethylpiperazin-1-yl]phenyl]-6-oxo-4-(trifluoromethyl)-1H-pyridine-3-carboxamide]	8.59
C[C@@H]1CN(c2cc(F)c(C3=CCN(c4ncc(CN5CCOCC5)cn4)C3)cc2NC(=O)c2c[nH]c(=O)cc2C(F)(F)F)C[C@H](C)N1C [Example 458, N-[4-fluoro-5-[1-[5-(morpholin-4-ylmethyl)pyrimidin-2-yl]-2,5-dihydropyrrol-3-yl]-2-[(3R,5S)-3,4,5-trimethylpiperazin-1-yl]phenyl]-6-oxo-4-(trifluoromethyl)-1H-pyridine-3-carboxamide]	9.32
C[C@@H]1CN(c2ncc(-c3cc(NC(=O)c4cn(C)c(=O)cc4C(F)F)c(N4C[C@@H](C)N(C)[C@@H](C)C4)cc3F)cn2)CCO1 [Example 461, 4-(difluoromethyl)-N-[4-fluoro-5-[2-[(2R)-2-methylmorpholin-4-yl]pyrimidin-5-yl]-2-[(3R,5S)-3,4,5-trimethylpiperazin-1-yl]phenyl]-1-methyl-6-oxopyridine-3-carboxamide]	8.31
CC(C)N1CCN(c2ncc(-c3cc(NC(=O)c4ccc(F)cc4C(F)(F)F)c(N4C[C@@H](C)N(C)[C@@H](C)C4)cc3F)cn2)CC1 [Example 466, 4-fluoro-N-[4-fluoro-5-[2-(4-propan-2-ylpiperazin-1-yl)pyrimidin-5-yl]-2-[(3R,5S)-3,4,5-trimethylpiperazin-1-yl]phenyl]-2-(trifluoromethyl)benzamide]	8.64
C[C@@H]1COCCN1c1ncc(-c2cc(NC(=O)c3c[nH]c(=O)cc3C(F)(F)F)c(N3CCN(C)[C@@H](C)C3)cc2F)cn1 [Example 468, N-[4-fluoro-2-[(3S)-3,4-dimethylpiperazin-1-yl]-5-[2-[(3R)-3-methylmorpholin-4-yl]pyrimidin-5-yl]phenyl]-6-oxo-4-(trifluoromethyl)-1H-pyridine-3-carboxamide]	8.64
C[C@@H]1COCCN1c1ncc(-c2cc(NC(=O)c3c[nH]c(=O)cc3C(F)(F)F)c(N3C[C@@H](C)N(C)[C@@H](C)C3)cc2F)cn1 [Example 469, N-[4-fluoro-5-[2-[(3R)-3-methylmorpholin-4-yl]pyrimidin-5-yl]-2-[(3R,5S)-3,4,5-trimethylpiperazin-1-yl]phenyl]-6-oxo-4-(trifluoromethyl)-1H-pyridine-3-carboxamide]	8.25
C[C@@H]1CN(c2cc(F)c(-c3cnc(N4CCOCC4)nc3)cc2NC(=O)c2c[nH]c(=O)cc2C(F)(F)F)C[C@H](C)[N+]1(C)C [Example 479, N-[4-fluoro-5-(2-morpholin-4-ylpyrimidin-5-yl)-2-[(3R,5S)-3,4,4,5-tetramethylpiperazin-4-ium-1-yl]phenyl]-6-oxo-4-(trifluoromethyl)-1H-pyridine-3-carboxamide]	8.45
C[C@@H]1CN(c2cc(F)c(-c3nc(C(=O)NCC4CC4)cs3)cc2NC(=O)c2c[nH]c(=O)cc2C(F)(F)F)C[C@H](C)N1C [Example 482, N-(cyclopropylmethyl)-2-[2-fluoro-5-[[6-oxo-4-(trifluoromethyl)-1H-pyridine-3-carbonyl]amino]-4-[(3R,5S)-3,4,5-trimethylpiperazin-1-yl]phenyl]-1,3-thiazole-4-carboxamide]	8.76
C[C@@H]1CN(c2cc(F)c(-c3nc(C(=O)NC4CCCCC4)cs3)cc2NC(=O)c2c[nH]c(=O)cc2C(F)(F)F)C[C@H](C)N1C [Example 484, N-Cyclohexyl-2-[2-fluoro-5-[[6-oxo-4-(trifluoromethyl)-1H-pyridine-3-carbonyl]amino]-4-[(3R,5S)-3,4,5-trimethylpiperazin-1-yl]phenyl]-1,3-thiazole-4-carboxamide]	8.51
C[C@@H]1CN(c2cc(F)c(-c3nc(C(=O)N(C)C4CCCCC4)cs3)cc2NC(=O)c2c[nH]c(=O)cc2C(F)(F)F)C[C@H](C)N1C [Example 485, N-cyclohexyl-2-[2-fluoro-5-[[6-oxo-4-(trifluoromethyl)-1H-pyridine-3-carbonyl]amino]-4-[(3R,5S)-3,4,5-trimethylpiperazin-1-yl]phenyl]-N-methyl-1,3-thiazole-4-carboxamide]	8.66
C[C@@H]1CN(c2cc(F)c(-c3nc(C(=O)N4CCOCC4)cs3)cc2NC(=O)c2c[nH]c(=O)cc2C(F)(F)F)C[C@H](C)N1C [Example 486, N-[4-fluoro-5-[4-(morpholine-4-carbonyl)-1,3-thiazol-2-yl]-2-[(3R,5S)-3,4,5-trimethylpiperazin-1-yl]phenyl]-6-oxo-4-(trifluoromethyl)-1H-pyridine-3-carboxamide]	8.61

Reference: patent US11319299B2, “Substituted carboxamides as inhibitors of WDR5 protein-protein binding” (PROPELLON THERAPEUTICS INC., priority 2016, dated 2022)
